Source: patent US20250282794A1 (CURADEV PHARMA LTD, priority 2022, published 2025)

target: recombinant full length HPK-1 enzyme (Homo sapiens (Human), UniProt Q92918); assay: HPK-1 biochemical enzyme assay (ADP-Glo kinase inhibition); conditions: recombinant full length HPK-1 6.8 nM, 10 μM ATP, 12.5 μM MBP, 30 mins at 25° C.
Procedure, shortened: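 ADP-Glo readout of ADP formed after a 30 min, 25° C. reaction of 6.8 nM full-length HPK-1 with swine myelin basic protein (12.5 μM) and ATP (10 μM) in Tris pH 7.4 buffer with MgCl2, DTT and BSA. Ten compound concentrations tested; percent inhibition set against vehicle (0%) and no-enzyme (100%) controls gave IC50.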

Chain of recombinant full length HPK-1 enzyme (Q92918 whole entry, species assumed): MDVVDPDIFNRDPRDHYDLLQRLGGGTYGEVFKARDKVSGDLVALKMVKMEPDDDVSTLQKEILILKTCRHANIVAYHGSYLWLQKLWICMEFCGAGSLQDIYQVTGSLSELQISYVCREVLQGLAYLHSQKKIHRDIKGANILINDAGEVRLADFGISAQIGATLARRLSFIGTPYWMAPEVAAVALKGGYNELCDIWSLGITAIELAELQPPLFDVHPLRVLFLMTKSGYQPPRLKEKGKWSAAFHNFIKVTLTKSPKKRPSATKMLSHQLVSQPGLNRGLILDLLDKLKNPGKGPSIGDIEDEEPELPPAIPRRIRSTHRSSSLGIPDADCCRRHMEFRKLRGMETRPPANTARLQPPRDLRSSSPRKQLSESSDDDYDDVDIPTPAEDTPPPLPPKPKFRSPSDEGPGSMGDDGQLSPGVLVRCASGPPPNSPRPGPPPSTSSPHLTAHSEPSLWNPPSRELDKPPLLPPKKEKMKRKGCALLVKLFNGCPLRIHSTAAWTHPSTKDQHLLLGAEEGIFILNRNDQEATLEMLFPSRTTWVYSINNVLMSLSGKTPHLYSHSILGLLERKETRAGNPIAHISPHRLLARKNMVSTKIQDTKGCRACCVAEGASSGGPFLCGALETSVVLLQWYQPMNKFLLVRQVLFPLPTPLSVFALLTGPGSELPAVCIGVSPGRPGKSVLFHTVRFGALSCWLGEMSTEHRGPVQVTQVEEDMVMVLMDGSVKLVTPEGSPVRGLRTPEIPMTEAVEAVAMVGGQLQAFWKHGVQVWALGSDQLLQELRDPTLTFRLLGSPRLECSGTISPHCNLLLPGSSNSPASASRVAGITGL

Compound	IC50 [nM]
Cc1c(Nc2cc[nH]c(=O)c2C(=O)Nc2ccc(N3CCN(c4nccs4)CC3)cc2)cnc2c1NCCO2 [Example 371, 4-((8-Methyl-2,3-dihydro-1H-pyrido[2,3-b][1,4]oxazin-7-yl)amino)-2-oxo-N-(4-(4-(thiazol-2-yl)piperazin-1-yl)phenyl)-1,2-dihydropyridine-3-carboxamide]	10 to 100
Cc1c(Nc2cc[nH]c(=O)c2C(=O)Nc2ccc(N3CCN(C(=O)C4CN(C)C4)CC3)cc2)cnc2c1NCCO2 [Example 373, 4-((8-methyl-2,3-dihydro-1H-pyrido[2,3-b][1,4]oxazin-7-yl)amino)-N-(4-(4-(1-methylazetidine-3-carbonyl)piperazin-1-yl)phenyl)-2-oxo-1,2-dihydropyridine-3-carboxamide]	10 to 100
Cc1c(Nc2cc[nH]c(=O)c2C(=O)Nc2ccc(N3CCN4C(=O)CCCC4C3)cc2)cnc2c1NCCO2 (stereo not shown) [Example 374, 4-((8-methyl-2,3-dihydro-1H-pyrido[2,3-b][1,4]oxazin-7-yl)amino)-2-oxo-N-(4-(6-oxooctahydro-2H-pyrido[1,2-a]pyrazin-2-yl)phenyl)-1,2-dihydropyridine-3-carboxamide]	10 to 100
Cc1c(Nc2cc[nH]c(=O)c2C(=O)Nc2ccc(N3CCN(C4(C)COC4)CC3)cc2)cnc2c1NCCO2 [Example 380, 4-((8-methyl-2,3-dihydro-1H-pyrido[2,3-b][1,4]oxazin-7-yl)amino)-N-(4-(4-(3-methyloxetan-3-yl)piperazin-1-yl)phenyl)-2-oxo-1,2-dihydropyridine-3-carboxamide]	10 to 100
Cc1c(Nc2cc[nH]c(=O)c2C(=O)Nc2ccc(N3CCC(N(C)C(=O)C(C)C)C3)cc2)cnc2c1NCCO2 (stereo not shown) [Example 381, 4-((8-methyl-2,3-dihydro-1H-pyrido[2,3-b][1,4]oxazin-7-yl)amino)-N-(4-(3-(N-methylisobutyramido)pyrrolidin-1-yl)phenyl)-2-oxo-1,2-dihydropyridine-3-carboxamide]	10 to 100
Cc1c(Nc2cc[nH]c(=O)c2C(=O)Nc2ccc(N3CCC4(CC3)CC4)cc2)cnc2c1NCCO2 [Example 382, N-(4-(6-azaspiro[2.5]octan-6-yl)phenyl)-4-((8-methyl-2,3-dihydro-1H-pyrido[2,3-b][1,4]oxazin-7-yl)amino)-2-oxo-1,2-dihydropyridine-3-carboxamide]	10 to 100
Cc1c(Nc2cc[nH]c(=O)c2C(=O)Nc2ccc(C3CCN(C(C)C)CC3)cc2)cnc2c1NCC(C)O2 (stereo not shown) [Example 384, 4-((3,8-dimethyl-2,3-dihydro-1H-pyrido[2,3-b][1,4]oxazin-7-yl)amino)-N-(4-(1-isopropylpiperidin-4-yl)phenyl)-2-oxo-1,2-dihydropyridine-3-carboxamide]	10 to 100
CCN1CCN(c2ccc(NC(=O)c3c(Nc4cnc5c(c4C)NCC(C)O5)cc[nH]c3=O)cc2F)CC1 (stereo not shown) [Example 385, 4-((3,8-dimethyl-2,3-dihydro-1H-pyrido[2,3-b][1,4]oxazin-7-yl)amino)-N-(4-(4-ethylpiperazin-1-yl)-3-fluorophenyl)-2-oxo-1,2-dihydropyridine-3-carboxamide]	10 to 100
Cc1c(Nc2cc[nH]c(=O)c2C(=O)Nc2ccc(N3CCN(CCF)CC3)c(F)c2)cnc2c1NCCO2 [Example 387, N-(3-fluoro-4-(4-(2-fluoroethyl)piperazin-1-yl)phenyl)-4-((8-methyl-2,3-dihydro-1H-pyrido[2,3-b][1,4]oxazin-7-yl)amino)-2-oxo-1,2-dihydropyridine-3-carboxamide]	10 to 100
CCN1CCN(c2c(F)cc(NC(=O)c3c(Nc4cnc5c(c4C)NCCO5)cc[nH]c3=O)cc2F)CC1 [Example 390, N-(4-(4-ethylpiperazin-1-yl)-3,5-difluorophenyl)-4-((8-methyl-2,3-dihydro-1H-pyrido[2,3-b][1,4]oxazin-7-yl)amino)-2-oxo-1,2-dihydropyridine-3-carboxamide]	10 to 100
Cc1c(Nc2cc[nH]c(=O)c2C(=O)Nc2ccc(N3CCN(C)CC3)c(CCO)c2)cnc2c1NCCO2 [Example 394, N-(3-(2-hydroxyethyl)-4-(4-methylpiperazin-1-yl)phenyl)-4-((8-methyl-2,3-dihydro-1H-pyrido[2,3-b][1,4]oxazin-7-yl)amino)-2-oxo-1,2-dihydropyridine-3-carboxamide]	10 to 100
Cc1c(Nc2cc[nH]c(=O)c2C(=O)Nc2ccc(N3CCC(N)C3)cc2)cnc2c1NCCO2 (stereo not shown) [Example 395, N-(4-(3-aminopyrrolidin-1-yl)phenyl)-4-((8-methyl-2,3-dihydro-1H-pyrido[2,3-b][1,4]oxazin-7-yl)amino)-2-oxo-1,2-dihydropyridine-3-carboxamide]	10 to 100
COc1ncc(C(C)(C)O)c2cc(NC(=O)c3c(Nc4cnc5c(c4C)NCCO5)cc[nH]c3=O)ccc12 [Example 396, N-(4-(2-Hydroxypropan-2-yl)-1-methoxyisoquinolin-6-yl)-4-((8-methyl-2,3-dihydro-1H-pyrido[2,3-b][1,4]oxazin-7-yl)amino)-2-oxo-1,2-dihydropyridine-3-carboxamide]	100 to 1000

Further lines, results first:

IC50 [nM]	Compound
≤ 10	Cc1c(Nc2cc[nH]c(=O)c2C(=O)Nc2ccc(N3CCN(CC(C)C)CC3)cc2)cnc2c1NCCO2 [Example 370, N-(4-(4-isobutylpiperazin-1-yl)phenyl)-4-((8-methyl-2,3-dihydro-1H-pyrido[2,3-b][1,4]oxazin-7-yl)amino)-2-oxo-1,2-dihydropyridine-3-carboxamide]
≤ 10	Cc1c(Nc2cc[nH]c(=O)c2C(=O)Nc2ccc(N3CCN(C(=O)C4CC4)CC3)cc2)cnc2c1NCC(C)O2 (stereo not shown) [Example 372, N-(4-(4-(cyclopropanecarbonyl)piperazin-1-yl)phenyl)-4-((3,8-dimethyl-2,3-dihydro-1H-pyrido[2,3-b][1,4]oxazin-7-yl)amino)-2-oxo-1,2-dihydropyridine-3-carboxamide]
≤ 10	Cc1c(Nc2cc[nH]c(=O)c2C(=O)Nc2ccc(N3CCC(O)(CN(C)C)CC3)cc2)cnc2c1NCCO2 [Example 375, N-(4-(4-((dimethylamino)methyl)-4-hydroxypiperidin-1-yl)phenyl)-4-((8-methyl-2,3-dihydro-1H-pyrido[2,3-b][1,4]oxazin-7-yl)amino)-2-oxo-1,2-dihydropyridine-3-carboxamide]
≤ 10	Cc1c(Nc2cc[nH]c(=O)c2C(=O)Nc2ccc(N3CCN(C4CC4)CC3)c(F)c2)cnc2c1NCCO2 [Example 376, N-(4-(4-cyclopropylpiperazin-1-yl)-3-fluorophenyl)-4-((8-methyl-2,3-dihydro-1H-pyrido[2,3-b][1,4]oxazin-7-yl)amino)-2-oxo-1,2-dihydropyridine-3-carboxamide]
≤ 10	Cc1c(Nc2cc[nH]c(=O)c2C(=O)Nc2ccc(N3CCN4C(=O)N(C)CC4C3)cc2)cnc2c1NCCO2 (stereo not shown) [Example 377, 4-((8-methyl-2,3-dihydro-1H-pyrido[2,3-b][1,4]oxazin-7-yl)amino)-N-(4-(2-methyl-3-oxohexahydroimidazo[1,5-a]pyrazin-7(1H)-yl)phenyl)-2-oxo-1,2-dihydropyridine-3-carboxamide]
≤ 10	Cc1c(Nc2cc[nH]c(=O)c2C(=O)Nc2ccc(N3CCN(C(C)c4ccn[nH]4)CC3)cc2)cnc2c1NCCO2 (stereo not shown) [Example 378, N-(4-(4-(1-(1H-pyrazol-5-yl)ethyl)piperazin-1-yl)phenyl)-4-((8-methyl-2,3-dihydro-1H-pyrido[2,3-b][1,4]oxazin-7-yl)amino)-2-oxo-1,2-dihydropyridine-3-carboxamide]
≤ 10	Cc1c(Nc2cc[nH]c(=O)c2C(=O)Nc2ccc(N3CCN(C4COC4)CC3)c(F)c2)cnc2c1NCCO2 [Example 379, N-(3-fluoro-4-(4-(oxetan-3-yl)piperazin-1-yl)phenyl)-4-((8-methyl-2,3-dihydro-1H-pyrido[2,3-b][1,4]oxazin-7-yl)amino)-2-oxo-1,2-dihydropyridine-3-carboxamide]
≤ 10	Cc1c(Nc2cc[nH]c(=O)c2C(=O)Nc2ccc(N3CCN(C(C)(C)C)CC3)cc2)cnc2c1NCCO2 [Example 383, N-(4-(4-(tert-butyl)piperazin-1-yl)phenyl)-4-((8-methyl-2,3-dihydro-1H-pyrido[2,3-b][1,4]oxazin-7-yl)amino)-2-oxo-1,2-dihydropyridine-3-carboxamide]
≤ 10	CCN1CCN(c2ccc(NC(=O)c3c(Nc4cnc5c(c4C)NCC(C)O5)cc[nH]c3=O)cc2F)CC1 (stereo not shown) [Example 386, 4-((3,8-dimethyl-2,3-dihydro-1H-pyrido[2,3-b][1,4]oxazin-7-yl)amino)-N-(4-(4-ethylpiperazin-1-yl)-3-fluorophenyl)-2-oxo-1,2-dihydropyridine-3-carboxamide]
≤ 10	CCN1CCN(c2c(F)cc(NC(=O)c3c(Nc4cnc5c(c4C)NCCO5)cc[nH]c3=O)cc2Cl)CC1 [Example 389, N-(3-Chloro-4-(4-ethylpiperazin-1-yl)-5-fluorophenyl)-4-((8-methyl-2,3-dihydro-1H-pyrido[2,3-b][1,4]oxazin-7-yl)amino)-2-oxo-1,2-dihydropyridine-3-carboxamide]
≤ 10	Cc1c(Nc2cc[nH]c(=O)c2C(=O)Nc2ccc(N3CCN(C4CC4)CC3)c(Cl)c2)cnc2c1NCCO2 [Example 391, N-(3-chloro-4-(4-cyclopropylpiperazin-1-yl)phenyl)-4-((8-methyl-2,3-dihydro-1H-pyrido[2,3-b][1,4]oxazin-7-yl)amino)-2-oxo-1,2-dihydropyridine-3-carboxamide]
≤ 10	COC1(CN(C)C)CCN(c2ccc(NC(=O)c3c(Nc4cnc5c(c4C)NCCO5)cc[nH]c3=O)cc2)CC1 [Example 392, N-(4-(4-((dimethylamino)methyl)-4-methoxypiperidin-1-yl)phenyl)-4-((8-methyl-2,3-dihydro-1H-pyrido[2,3-b][1,4]oxazin-7-yl)amino)-2-oxo-1,2-dihydropyridine-3-carboxamide]
